# Test results reported in patent publication EP0423133B1, “ENZYMATIC RESOLUTION SYSTEMS AND COMPOUNDS USEFUL IN THE SYSTEMS AND THEIR REPARATIONS” (priority 1988, dated 1989).
# Where a name gives a salt, the structure may show the parent alone. Read-outs that look alike come from different tables or passages of the source.
# Legend:
# [1] = tested on: Protease XXIII; assay: Homogeneous aqueous enzymatic resolution (ester hydrolysis) with enzyme A; assay type: biochemical, Aspergillus oryzae; conditions: for enantiomeric excess: pH 7.5, 100 mg Protease XXIII (A)
# Protocol: The enzymes used in Examples 6.2.1.1-6.2.1.17, 6.2.1.20-6.2.1.21, 6.2.1.23-6.2.1.28, 6.2.2.7, and 6.2.3.1-6.2.3.5 that follow were all proteases commercially available from Sigma Chemical Co., St. Louis, MO. […] For examples 6.2.2.5-6.2.2.6, Candida lipase obtained from Genzyme Corporation was used.
# No further purification was performed.
# The aqueous layer was retained.
# [2] = target: T1, Protease VIII: "Subtilopeptidase A" (Bacillus licheniformis, UniProt P00780); assay: Homogeneous aqueous enzymatic resolution (ester hydrolysis) with enzyme B; assay type: biochemical; conditions: for % e.e.: acid product
# T1 sequence (P00780 106-379): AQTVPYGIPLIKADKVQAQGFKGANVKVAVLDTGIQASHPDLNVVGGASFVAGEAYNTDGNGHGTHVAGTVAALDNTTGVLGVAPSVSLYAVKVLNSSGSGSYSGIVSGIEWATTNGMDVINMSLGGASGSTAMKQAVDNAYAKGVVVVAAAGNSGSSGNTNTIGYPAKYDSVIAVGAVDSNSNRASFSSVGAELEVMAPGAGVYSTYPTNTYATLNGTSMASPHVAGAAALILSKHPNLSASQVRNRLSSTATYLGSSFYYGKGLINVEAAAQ
# [3] = tested on: Prozyme 6; assay: Homogeneous aqueous enzymatic resolution (ester hydrolysis) with enzyme F; assay type: biochemical, Aspergillus oryzae; conditions: for % CONVERSION / % e.e.: 10 mmol ester in 100 ml 0.2 M buffer pH 7.0, 100 mg Prozyme 6 (F), 25 °C, 18 hours; for % e.e.: acid product, R
# [4] = tested on: Protease XVI; assay: Homogeneous aqueous enzymatic resolution (ester hydrolysis) with enzyme C; assay type: biochemical, Bacillus subtilis; conditions: 10.0 mmol ester in 100 ml 0.2 M phosphate buffer pH 7.0, 100 mg enzyme C, 20-22 °C, 20 hours; for % e.e.: acid product, R
# Description: (§1) The enzymes used in Examples 6.2.1.1-6.2.1.17, 6.2.1.20-6.2.1.21, 6.2.1.23-6.2.1.28, 6.2.2.7, and 6.2.3.1-6.2.3.5 that follow were all proteases commercially available from Sigma Chemical Co., St. Louis, MO. These proteases are listed in each example using the Sigma numbering system, which is summarized below: • Protease VIII: "Subtilopeptidase A", product P-5380 (also known as subtilisin Carlsberg) • Protease XIV: from Streptomyces griseus, product P-5147 • Protease XVI: from Bacillus subtilis, product P-8775 • Protease XXIII: from Aspergillus oryzae, product P-4032 • Protease XXVII: "Nagarse", product P-4789 • Protease XXIV: bacterial protease, product P-8038 An additional protease enzyme, which was designated Prozyme 6, was obtained from the Amano Enzyme Corporation and used in Examples 6.2.1.18-6.2.19, 6.2.1.22, 6.2.1.29-6.2.1.30 and 6.2.2.1-6.2.2.4 described below. A pig liver esterase was used in Example 6.21.11; this enzyme, obtained from Sigma Chemical Company, was designated as their product E-3128. For examples 6.2.2.5-6.2.2.6, Candida lipase obtained from Genzyme Corporation was used. Finally, Candida lipase, product L-1754, obtained from Sigma Chemical Co. was used in Example 6.2.2.7.
# [5] = Solubility by absorbance of saturated solutions at 262 nm; assay type: physicochemical
# [6] = tested on: Candida lipase (Genzyme Corporation); assay: Asymmetric hydrolysis in a multiphase membrane bioreactor with enzyme G; assay type: biochemical, Candida cylindracea; conditions: neat liquid ester, pH 7.7
# Description: The module was then drained.
# This material was recrystallized from hexane.
# [7] = target: T2, Protease XXVII: "Nagarse" (Bacillus amyloliquefaciens, UniProt P00782); assay: Homogeneous aqueous enzymatic resolution (ester hydrolysis) with enzyme D; assay type: biochemical; conditions: 0.010 mol ester in 100 ml 0.2 M sodium phosphate buffer pH 7.8, 150 mg enzyme D
# T2 sequence (P00782 108-382): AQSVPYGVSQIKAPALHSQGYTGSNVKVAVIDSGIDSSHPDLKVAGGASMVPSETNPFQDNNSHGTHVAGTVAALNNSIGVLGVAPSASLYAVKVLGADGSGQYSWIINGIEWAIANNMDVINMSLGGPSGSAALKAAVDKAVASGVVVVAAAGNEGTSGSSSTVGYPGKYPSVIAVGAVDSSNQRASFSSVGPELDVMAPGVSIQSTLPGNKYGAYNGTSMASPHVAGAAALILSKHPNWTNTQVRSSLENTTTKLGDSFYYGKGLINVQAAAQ
# Description: as §1
# [8] = tested on: Candida lipase (Sigma L 1754); assay: Asymmetric hydrolysis in a multiphase membrane bioreactor with enzyme H; conditions: for rate of ester hydrolysis: pH 7.0
# Protocol: The enzyme solution was recirculated from the shell side to the lumen side and back to the solution reservoir in an ultra-filtration mode. […] The procedure was completed in one hour.
# After loading the enzyme to the reactor, recirculation of 210 gm. […] The recirculation rate was 400 ml/min and the average pressure on the shell compartment was kept at 45,5 KPa (6.5 psi) by adjusting a throttling valve at the shell side exit. On the lumen side 1 liter of 0.05 M K2 PO4 was recirculated at a rate of 400 ml/min. The pH of the aqueous reservoir was kept at 7.0 by addition of 1 M NaOH. The reactor was run continuously for 6.8 days.
# The reaction progress and rate were monitored by following the caustic consumption.
# [9] = 10.0 mmol ester in 100 ml 0.2 M phosphate buffer pH 7.0, 100 mg enzyme A, 20-22 °C, 20 hours
# [10] = acid product, R, 10.0 mmol ester in 100 ml 0.2 M phosphate buffer pH 7.0, 100 mg enzyme A, 20-22 °C, 20 hours
# [11] = aqueous buffer, saturated solutions, pH 7 (50 mM phosphate buffer), room temperature, read-out: Solubility
# [12] = water, as stated in the text of the examples, read-out: water solubility
smiles,measurement,setting,value
"CC(CSC(=O)c1ccccc1)C(=O)OCS(=O)(=O)O (racemic) [Compound 16, Potassium Salt of the Sulfomethyl Ester of (±)-S-3-Benzoylthio-2-methylpropanoic Acid]",% CONVERSION,"[1]; 10.0 mmol ester in 100 ml 0.2 M buffer pH 7.0, 100 mg enzyme A, 25 °C, 18 hours",53%
same,% e.e.,"[1]; acid product, S, 10.0 mmol ester in 100 ml 0.2 M buffer pH 7.0, 100 mg enzyme A, 25 °C, 18 hours",3%
same,% CONVERSION,"[2]; 10.0 mmol ester in 100 ml 0.2 M buffer pH 7.0, 100 mg enzyme B, 25 °C, 18 hours",26%
same,% e.e.,"[2]; S, 10.0 mmol ester in 100 ml 0.2 M buffer pH 7.0, 100 mg enzyme B, 25 °C, 18 hours",10%
"CC(C)Cc1ccc(C(C)C(=O)OCCS(=O)(=O)O)cc1 (racemic) [Compound 2, Sodium Salt of 2-Sulfoethyl Ester of 2-(4-Isobutylphenyl) propanoic Acid]",% CONVERSION,[1]; [9],22.3%
same,% e.e.,[1]; [10],93.3%
"CC(Oc1ccc(Cl)cc1)C(=O)OCS(=O)(=O)O (racemic) [Compound 17, Sodium Salt of the Sulfomethyl Ester of 2-(4-Chlorophenoxy) propanoic Acid]",completion of reaction,"[3]; 10 mmol ester in 100 ml 0.2 M sodium phosphate buffer pH 7.0, 35 mg Enzyme F, 30 °C, 1 hour",22.5%
"CC(C)Cc1ccc(C(C)C(=O)OCCOP(=O)(O)O)cc1 (racemic) [Compound 5, Disodium Salt of the Phosphoric Acid Ester of the 2-Hydroxyethyl Ester of 2-(4-Isobutylphenyl) propanoic Acid]",% CONVERSION,[4],5.3%
same,% e.e.,[4],75.6%
"CC(C)Cc1ccc(C(C)C(=O)OCC[N+](C)(C)C)cc1 (racemic) [Compound 10, Iodide Salt of 2-(N,N,N-Trimethylammonium)ethyl Ester of 2-(4-Isobutylphenyl) propanoic Acid]",solubility,[5]; [11],2180 mM
same,% CONVERSION,[1]; [9],30.1%
same,% e.e.,[1]; [10],>99%
"CC(Cl)C(=O)OCCCS(=O)(=O)O (racemic) [Compound 13, Potassium Salt of 3-Sulfopropyl Ester of 2-Chloropropanoic Acid]",conversion as measured by titrimetry,"[2]; 8.05 gm ester in 300 ml 0.1 M potassium phosphate buffer pH 7.0, 20 mg subtilisin protease (B), point at which the reaction was stopped",25%
"CC(C)Cc1ccc(C(C)C(=O)OCC(F)(F)F)cc1 (racemic) [Compound 19, 2,2,2-Trifluoroethyl Ester of 2-(4-Isobutylphenyl)propanoic Acid]",solubility,[5]; [11],0.4 mM
same,solubility,[5]; [12],~0.4 mM
same,average hydrolytic rate,"[6]; first 60 minutes, 3.0 grams Candida lipase in membrane",160 amol/min
same,average hydrolysis rate,"[6]; over the next 76 hours, by titrimetry",21 µmol/min
same,conversion to acid,[6]; over the next 76 hours,about 9.8%
COCCOC(=O)C(C)c1ccc(CC(C)C)cc1 (stereo not drawn) [Methoxyethyl ester of ibuprofen],solubility,[5]; [11],0.18 mM
"CC(C)Cc1ccc(C(C)C(=O)OCCCOS(=O)(=O)O)cc1 (racemic) [Compound 6, Potassium Salt of the Sulfuric Acid Ester of 3-Hydroxypropyl Ester of 2-(4-Isobutylphenyl) propanoic Acid]",% CONVERSION,[1]; [9],24.3%
same,% e.e.,[1]; [10],96.5%
"CC(C)Cc1ccc(C(C)C(=O)OCCCS(=O)(=O)O)cc1 (racemic) [Compound 3, Potassium Salt of 3-Sulfopropyl Ester of 2-(4-Isobutylphenyl) propanoic Acid]",% CONVERSION,[1]; [9],50.0%
same,% CONVERSION,"[1]; 0.010 mol ester in 100 ml 0.2 M sodium phosphate buffer pH 7.8, 150 mg enzyme A",47.1%
same,conversion of the racemic ester to acid,"[1]; about 1 M ester, 40 ml, 0.1 M potassium phosphate pH 7.0, 1.00 gm protease (A), 23.9 hours at room temperature, by hydroxide titration",29%
same,% e.e.,[1]; [10],84.2%
same,% e.e.,"[1]; acid product, R, 0.010 mol ester in 100 ml 0.2 M sodium phosphate buffer pH 7.8, 150 mg enzyme A",97.7%
same,% CONVERSION,"[2]; 0.010 mol ester in 100 ml 0.2 M sodium phosphate buffer pH 7.8, 150 mg enzyme B",36.4%
same,% e.e.,"[2]; R, 0.010 mol ester in 100 ml 0.2 M sodium phosphate buffer pH 7.8, 150 mg enzyme B",98.6%
same,% CONVERSION,[7],32.0%
same,% e.e.,"[7]; acid product, R",91.0%
"CC(C)Cc1ccc(C(C)C(=O)OCCN(C)C)cc1 (stereo not drawn) [2-(N,N-dimethylamino)ethyl ester of ibuprofen]",solubility,[5]; [11],10 mM
"CC(C)Cc1ccc(C(C)C(=O)OCCCCS(=O)(=O)O)cc1 (racemic) [Compound 4, Potassium Salt of 4-Sulfobutyl Ester of 2-(4-Isobutylphenyl) propanoic Acid]",solubility,[5]; [11],1130 mM
same,% CONVERSION,[1]; [9],43.2%
same,% e.e.,[1]; [10],97.4%
same,% CONVERSION,"[2]; 10.0 mmol ester in 100 ml 0.2 M phosphate buffer pH 7.0, 100 mg enzyme B, 20-22 °C, 20 hours",20.0%
same,% e.e.,"[2]; R, 10.0 mmol ester in 100 ml 0.2 M phosphate buffer pH 7.0, 100 mg enzyme B, 20-22 °C, 20 hours",92.1%
same,% CONVERSION,[4],22.0%
same,% e.e.,[4],61.7%
"COc1ccc2cc(C(C)C(=O)OCS(=O)(=O)O)ccc2c1 (racemic) [Compound 9, Sodium Salt of Sulfomethyl Ester of 2-(6-Methoxy-2-naphthyl) propanoic Acid]",conversion (enzymatic hydrolysis),"[1]; 2.0 gm ester in 400 ml 50 mM sodium phosphate buffer pH 7.5, 100 mg Protease XXIII (A), 25 degrees, 16 hours",18%
same,enantiomeric excess,"[1]; R isomer of naproxen, acid product, 16 hours",61.2%
same,enantiomeric excess,"[1]; S isomer of Naproxen from chemical hydrolysis (pH 12) of the unconverted ester, 16 hours",45.5%
"CCCCCCCCOC(=O)C(C)Cl (racemic) [Compound 20, Octyl Ester of 2-Chloropropanoic Acid]",solubility,[5]; [11],1.2 mM
same,solubility,[5]; [12],~1.2 mM
same,rate of ester hydrolysis,"[8]; at the beginning of the experiment, 210 gm neat ester, 30 grams Candida lipase in membrane",186 µmol/min
same,rate of ester hydrolysis,[8]; at the end of the experiment (6.8 days),25 µmol/min
same,initial ester hydrolyzed,[8]; when the experiment was terminated (6.8 days),41%
"COc1ccc2cc(C(C)C(=O)OCC[N+](C)(C)C)ccc2c1 (racemic) [Compound 11, Methyl Sulfate Salt of 2-(N,N,N-Trimethylammonium) ethyl Ester of 2-(6-Methoxy-2-naphthyl)propanoic Acid]",% CONVERSION,[3],24.3%
same,% e.e.,[3],34.0%
"COc1ccc2cc(C(C)C(=O)OCCC[N+](C)(C)C)ccc2c1 (racemic) [Compound 12, Methyl Sulfate Salt of 3-(N,N,N-Trimethylammonium) propyl Ester of 2-(6-Methoxy-2-naphthyl)propanoic Acid]",solubility,[5]; [11],1610 mM
same,% CONVERSION,[3],34.0%
same,% e.e.,[3],21.6%
